Data from ChEMBL document CHEMBL1132184, “Two-stage method for protein-ligand docking” (J Med Chem, 1999).
pKi: −log10 of the molar value.

Molecular target: Prothrombin (Homo sapiens, UniProt P00734)
Experiment: Binding affinity against thrombin

pKi: 9.57
Compound: N=C(N)C[C@H]1CC[C@@H](NC(=O)[C@@H]2CCCN2C(=O)[C@@H](Cc2ccccc2)NS(=O)(=O)Cc2ccccc2)CC1
